# Laboratory results from patent publication US11840686B2, “Modulation of prekallikrein (PKK) expression” (Ionis Pharmaceuticals, Inc., priority 2013, dated 2023).
# Strand notation (5' to 3'): a small letter for the sugar, then the base; units joined by * are phosphorothioate-linked, units joined directly phosphodiester-linked; [ ] holds rarer units or linkages, { } end groups; capitals alone tell only the bases. e = 2'-O-(2-methoxyethyl) (MOE); [5mC] = 5-methylcytosine; d = 2'-deoxy (DNA)
# System: human PKK mRNA
# Experiment: Antisense inhibition of human PKK mRNA in HepaRG cells, 5,000 nM (Example 2)
# Type: cell-based
# Protocol: Additional antisense oligonucleotides were designed targeting a PKK nucleic acid and were tested for their effects on PKK mRNA in vitro.
# The chimeric antisense oligonucleotides in the tables below were designed as 5-10-5 MOE gapmers, 4-9-4 MOE gapmers, 4-10-4 MOE gapmers, 4-10-3 MOE gapmers, 3-10-4 MOE gapmers, or 3-10-3 MOE gapmers. The 5-10-5 MOE gapmers are 20 nucleosides in length, wherein the central gap segment comprises of ten 2′-deoxynucleosides and is flanked by wing segments on the 5′ direction and the 3′ direction comprising five nucleosides each. The 4-9-4 MOE gapmers are 17 nucleosides in length, wherein the central gap segment comprises of nine 2′-deoxynucleosides and is flanked by wing segments on the 5′ direction and the 3′ direction comprising four nucleosides each. The 4-10-4 MOE gapmers are 18 nucleosides in length, wherein the central gap segment comprises of ten 2′-deoxynucleosides and is flanked by wing segments on the 5′ direction and the 3′ direction comprising four nucleosides each. The 4-10-3 MOE gapmers are 17 nucleosides in length, wherein the central gap segment comprises of ten 2′-deoxynucleosides and is flanked by wing segments on the 5′ direction and the 3′ direction comprising four and three nucleosides respectively. The 3-10-4 MOE gapmers are 17 nucleosides in length, wherein the central gap segment comprises often 2′-deoxynucleosides and is flanked by wing segments on the 5′ direction and the 3′ direction comprising three and four nucleosides respectively. The 3-10-3 MOE gapmers are 16 nucleosides in length, wherein the central gap segment comprises of ten 2′-deoxynucleosides and is flanked by wing segments on the 5′ direction and the 3′ direction comprising three nucleosides each. Each nucleoside in the 5′ wing segment and each nucleoside in the 3′ wing segment has a 2′-O-methoxyethyl modification. The internucleoside linkages throughout each gapmer are phosphorothioate linkages. All cytosine residues throughout each gapmer are 5-methylcytosines. “Start site” indicates the 5′-most nucleoside to which the gapmer is targeted in the human gene sequence. “Stop site” indicates the 3′-most nucleoside to which the gapmer is targeted in the human gene sequence.
# Cultured HepaRG™ cells at a density of 20,000 cells per well were transfected using electroporation with 5,000 nM antisense oligonucleotide. After a treatment period of approximately 24 hours, RNA was isolated from the cells and PKK mRNA levels were measured by quantitative real-time PCR. Human primer probe set RTS3454 was used to measure mRNA levels. PKK mRNA levels were adjusted according to total RNA content, as measured by RIBOGREEN®. The antisense oligonucleotides were tested in a series of experiments that had similar culture conditions. Results are presented as percent inhibition of PKK, relative to untreated control cells.
# [1] = HepaRG cells, electroporation, 5,000 nM antisense oligonucleotide, approx. 24 hours, primer probe set RTS3454, relative to untreated control cells, Table 11
# [2] = HepaRG cells, 5,000 nM antisense oligonucleotide, 5-10-5 gapmers, Table 17
# [3] = Table 13, human PKK mRNA in HepaRG cells, 5-10-5 gapmers
# [4] = HepaRG cells, electroporation with 5,000 nM antisense oligonucleotide, approximately 24 hours, PKK mRNA by RT-PCR (RTS3454), relative to untreated control cells, Table 6 experiment
# [5] = Table 7, HepaRG cells, electroporation with 5,000 nM antisense oligonucleotide, approx. 24 hours, PKK mRNA by RT-PCR (RTS3454), relative to untreated control cells
# [6] = HepaRG cells, electroporation with 5,000 nM antisense oligonucleotide, approximately 24 hours, PKK mRNA by RT-PCR (RTS3454), relative to untreated control cells, Table 5 experiment
# [7] = Table 8, HepaRG cells, electroporation with 5,000 nM antisense oligonucleotide, approx. 24 hours, PKK mRNA by RT-PCR (RTS3454), relative to untreated control cells
# [8] = HepaRG cells, 5,000 nM antisense oligonucleotide, human PKK mRNA, Table 18
# [9] = human PKK mRNA in HepaRG cells, 5-10-5 gapmers, Table 14
# [10] = Table 9 experiment, HepaRG cells, 20,000 cells per well, electroporation with 5,000 nM antisense oligonucleotide, approx. 24 hours, PKK mRNA by RT-PCR (RTS3454), relative to untreated control cells
# [11] = Table 10 experiment, HepaRG cells, 20,000 cells per well, electroporation with 5,000 nM antisense oligonucleotide, approx. 24 hours, PKK mRNA by RT-PCR (RTS3454), relative to untreated control cells
substance,measurement,setting,value
547499 (antisense e[5mC]*eT*e[5mC]*eT*eG*dG*dA*d[5mC]*dT*dG*d[5mC]*dT*dT*d[5mC]*dT*e[5mC]*eA*eT*eG*e[5mC]) [compound 547499],% inhibition,[1],65%
546606 (e[5mC]*eT*e[5mC]*eA*e[5mC]*d[5mC]*dA*dG*dA*dG*dT*dT*dG*dT*d[5mC]*e[5mC]*e[5mC]*e[5mC]*eA*eG; antisense) [compound 546606],% inhibition,[2],0%
546749 (eG*e[5mC]*eT*eG*eG*dT*d[5mC]*d[5mC]*dT*dT*dG*dA*dA*d[5mC]*d[5mC]*e[5mC]*e[5mC]*eG*eT*eG; antisense) [compound 546749],% inhibition,[3],53%
546177 (antisense eT*eG*eT*e[5mC]*e[5mC]*dA*dG*dA*dA*dA*d[5mC]*dT*dG*d[5mC]*dA*e[5mC]*e[5mC]*eT*eG*eT) [compound 546177],% inhibition,[4],75%
547399 (eG*e[5mC]*eA*eG*eG*dG*dT*dT*d[5mC]*dA*dG*dG*dT*dA*dA*eA*eG*eT*eT*e[5mC]; antisense) [compound 547399],% inhibition,[5],10%
547309 (antisense e[5mC]*eT*eT*eT*e[5mC]*dA*dA*dG*dA*dA*dG*d[5mC]*dA*dA*d[5mC]*e[5mC]*eA*eA*eA*e[5mC]) [compound 547309],% inhibition,[6],71%
547362 (e[5mC]*eA*eA*e[5mC]*eA*dT*d[5mC]*d[5mC]*dA*d[5mC]*dA*dT*d[5mC]*dT*dG*eA*eG*eA*eA*e[5mC]; antisense) [compound 547362],% inhibition,[4],47%
547357 (e[5mC]*eT*eT*eT*eA*dA*dT*dA*dG*dG*d[5mC]*dA*dA*dT*dT*eG*eT*eT*e[5mC]*e[5mC]; antisense) [compound 547357],% inhibition,[4],78%
546205 (antisense eG*eT*eA*e[5mC]*eT*dT*dT*dA*dA*dT*dA*dG*dG*d[5mC]*dA*eA*eT*eT*eG*eT) [compound 546205],% inhibition,[4],83%
546294 (antisense eG*eT*e[5mC]*e[5mC]*eT*dA*dT*dG*dA*dG*dT*dG*dA*d[5mC]*d[5mC]*e[5mC]*eT*e[5mC]*e[5mC]*eA) [compound 546294],% inhibition,[7],72%
546131 (eA*eT*eG*eA*eA*d[5mC]*dG*dG*dT*d[5mC]*dT*dT*d[5mC]*dA*dA*eG*e[5mC]*eT*eG*eT; antisense) [compound 546131],% inhibition,[6],75%
547069 (eG*e[5mC]*e[5mC]*e[5mC]*eT*d[5mC]*d[5mC]*dG*dA*dG*d[5mC]*dT*dT*dT*dG*eG*e[5mC]*eA*eA*e[5mC]; antisense) [compound 547069],% inhibition,[2],35%
548716 (DNA eT*eA*eT*d[5mC]*dA*d[5mC]*dT*dG*dT*dA*d[5mC]*dT*dA*eG*eT*eT; antisense) [compound 548716],% inhibition,[8],10%
546871 (eA*e[5mC]*eT*eG*eT*dA*d[5mC]*d[5mC]*dT*dA*dT*dA*dA*d[5mC]*dT*e[5mC]*eT*eA*eA*e[5mC]; antisense) [compound 546871],% inhibition,[9],73%
547409 (eA*eG*eT*e[5mC]*eA*d[5mC]*dA*dT*dT*d[5mC]*dA*dA*dT*dT*d[5mC]*eT*eT*e[5mC]*eT*e[5mC]; antisense) [compound 547409],% inhibition,[5],67%
546836 (eA*eT*eA*eA*e[5mC]*dT*d[5mC]*dT*dA*dA*d[5mC]*dA*dG*dT*dA*eT*e[5mC]*eA*e[5mC]*eT; antisense) [compound 546836],% inhibition,[3],30%
546236 (eG*eT*eT*eA*eA*dA*dA*dG*dG*d[5mC]*dT*dA*dT*dA*dT*e[5mC]*e[5mC]*eA*eG*eA; antisense) [compound 546236],% inhibition,[5],50%
548783 (antisense eA*e[5mC]*e[5mC]*eT*dA*dT*dA*dA*d[5mC]*dT*dA*dT*dA*eA*e[5mC]*eA*eA) [compound 548783],% inhibition,"human PKK mRNA, HepaRG cells, 5,000 nM antisense oligonucleotide, Table 18",0%
547524 (antisense e[5mC]*eA*eT*eT*eG*dT*d[5mC]*dA*dG*d[5mC]*d[5mC]*d[5mC]*d[5mC]*dT*dG*eG*eT*eT*eA*e[5mC]) [compound 547524],% inhibition,[1],58%
546416 (e[5mC]*eT*eG*e[5mC]*eA*dG*dG*d[5mC]*dA*dA*dT*dA*dT*dT*dT*eT*eG*e[5mC]*eT*eT; antisense) [compound 546416],% inhibition,"HepaRG cells, electroporation, 5,000 nM antisense oligonucleotide, approx. 24 hours, primer probe set RTS3454, relative to untreated control cells, Table 12",62%
547735 (eG*eG*eT*eA*eG*dG*dA*dT*dT*dG*dG*dT*dG*dG*dT*eG*eG*eG*eA*eT; antisense) [compound 547735],% inhibition,[2],39%
547764 (antisense e[5mC]*e[5mC]*eA*e[5mC]*e[5mC]*dT*dT*d[5mC]*dT*dT*dA*d[5mC]*dA*dT*dA*eT*eG*e[5mC]*eT*eA) [compound 547764],% inhibition,[2],24%
546308 (antisense eA*e[5mC]*eT*eT*eT*dA*dT*dA*dG*dT*dT*dT*dT*dG*dG*eT*eG*eA*eA*eT) [compound 546308],% inhibition,[10],57%
same,% inhibition,[11],43%
546213 (antisense e[5mC]*e[5mC]*e[5mC]*eT*eG*dG*d[5mC]*dA*dA*d[5mC]*dA*dT*d[5mC]*d[5mC]*dA*e[5mC]*eA*eT*e[5mC]*eT) [compound 546213],% inhibition,[4],82%
547414 (eT*eG*eG*eG*eA*dG*dT*dA*dA*dA*dG*dA*dA*dT*dA*eA*eG*eT*eG*eA; antisense) [compound 547414],% inhibition,[7],76%
546347 (antisense eA*e[5mC]*eT*eA*eA*dG*dG*dG*dA*d[5mC]*d[5mC]*dA*d[5mC]*d[5mC]*dT*eG*eA*eA*eT*e[5mC]) [compound 546347],% inhibition,[10],28%
same,% inhibition,[11],22%
548719 (DNA eG*eT*eA*d[5mC]*dT*dA*dG*dT*dT*dT*d[5mC]*d[5mC]*dT*eA*eT*eA*eA; antisense) [compound 548719],% inhibition,[8],0%
546309 (antisense e[5mC]*e[5mC]*e[5mC]*eT*eT*d[5mC]*dT*dG*dA*dG*dA*d[5mC]*dT*dT*dT*eA*eT*eA*eG*eT) [compound 546309],% inhibition,[10],88%
same,% inhibition,[11],81%
546351 (antisense eT*eT*eG*e[5mC]*eT*d[5mC]*d[5mC]*d[5mC]*dT*dG*d[5mC]*dG*dG*dG*d[5mC]*eA*e[5mC]*eA*eG*e[5mC]) [compound 546351],% inhibition,[10],82%
same,% inhibition,[11],60%
547621 (antisense eT*eA*e[5mC]*eT*eA*dG*dT*dT*dT*d[5mC]*d[5mC]*dT*dA*dT*dA*eA*e[5mC]*eA*eG*eT) [compound 547621],% inhibition,[9],12%
546256 (eT*e[5mC]*eA*eT*e[5mC]*dT*dT*dT*dG*dT*dG*d[5mC]*dA*dA*dG*eT*e[5mC]*eT*e[5mC]*eT; antisense) [compound 546256],% inhibition,[7],83%
546388 (e[5mC]*eT*eG*eA*eA*dA*dG*d[5mC]*dG*dG*dG*d[5mC]*dT*dT*d[5mC]*eA*eG*e[5mC]*e[5mC]*eA; antisense) [compound 546388],% inhibition,[1],71%
547021 (eT*eT*eG*eG*eT*dG*dG*d[5mC]*dG*dG*dG*dA*dT*d[5mC]*dG*eG*eT*eG*eG*eT; antisense) [compound 547021],% inhibition,[2],57%
546171 (antisense e[5mC]*eT*eA*eT*e[5mC]*dT*dT*dT*d[5mC]*dA*dA*dG*dA*dA*dG*e[5mC]*eA*eA*e[5mC]*e[5mC]) [compound 546171],% inhibition,[6],81%
546237 (e[5mC]*eA*eG*eG*eT*dT*dA*dA*dA*dA*dG*dG*d[5mC]*dT*dA*eT*eA*eT*e[5mC]*e[5mC]; antisense) [compound 546237],% inhibition,[5],64%
